“And” between values parts separate entries of the source, which are not always exact repeats. Identical values can stand only once. Like-named read-outs stand apart in the source and are kept apart here.
Assay: Brain distribution study
Format: in vivo, male C57BL/6 mice
Method: Compound KL50 dosing solution: 3.39% DMSO+96.61% (10% HP-β-CD in saline) at 2 mg/mL; • 1) Weigh 17.39 mg of compound KL50 into a clean tube. • 2) Add 0.295 mL DMSO into the tube containing the compound. • 3) Vortex the tube for 3 min and sonicate it for 4 min. • 4) Add 8.400 mL 10% HP-β-CD in saline into the tube and vortex the tube for 3 min. Compound I-1 dosing solution: 3.39% DMSO+96.61% (10% HP-β-CD in saline) at 2 mg/mL; • 1) Weigh 16.86 mg Compound I-1 into a clean tube. • 2) Add 0.286 mL DMSO into the tube containing the compound. • 3) Vortex the tube for 3 min and sonicate it for 4 min. • 4) Add 8.144 mL 10% HP-β-CD in saline into the tube and vortex the tube for 3 min.
The in-vivo pharmacokinetic and brain distribution study was conducted under the following parameters. Twenty seven C57BL/6 male mice were purchased from Shanghai JiHui Laboratory Animal Co. LTD. Each mouse weighted from 16 g to 17 g. The mice were fasted overnight and fed post 4 hr sampling. Compound KL50 and Compound I-I were administered via oral gavage (PO) at a dose of 20 mg/kg (10 mL/kg). After dosing, sampling was completed at 0.083, 0.167, 0.333, 0.5, 0.75, 1, 2, 4 and 8 hr post dose, with three mice sacrificed at each time point.
Terminal bleeding for plasma and brain was completed at each time point. Approximately 110 μL blood per time point was collected into a K2EDTA tube via the facial vein. The blood sample was put on wet ice and centrifuged to obtain plasma sample (2000 g, 5 min under 4° C.) within 15 minutes. Plasma samples were acidified with 6 μL of formic acid for every 54 μL of plasma. After blood collection, a mid-line incision was made in the animal's scalp and the skin was retracted. The skull overlying the brain was removed. Then, the whole brain was collected, rinsed with cold saline, dried on filtrate paper, and weighed; and then snap frozen by placing the brain into dry-ice. Plasma samples were stored at approximately −70° C. until analysis. Brain tissue was homogenized with 3 volumes (v/w) of PBS (1% FA) and then analyzed with LC-MS/MS. The concentration of study drug was corrected with a dilution factor of four as following: Brain concentration=brain homogenate conc.×4, assuming 1 g wet brain tissue equals to 1 mL

[1] = PO 20 mg/kg, male C57BL/6 mice, 0.083 hr, 20 mg/kg
[2] = PO 20 mg/kg, male C57BL/6 mice, 0.167 hr, 20 mg/kg
[3] = PO 20 mg/kg, male C57BL/6 mice, 0.333 hr, 20 mg/kg
[4] = PO 20 mg/kg, male C57BL/6 mice, 0.5 hr, 20 mg/kg
[5] = PO 20 mg/kg, male C57BL/6 mice, 0.75 hr, 20 mg/kg
[6] = PO 20 mg/kg, male C57BL/6 mice, 1 hr, 20 mg/kg
[7] = PO 20 mg/kg, male C57BL/6 mice, 2 hr, 20 mg/kg
[8] = PO 20 mg/kg, male C57BL/6 mice, 4 hr
[9] = PO 20 mg/kg, male C57BL/6 mice, 8 hr
[10] = brain, PO 20 mg/kg, male C57BL/6 mice
[11] = mouse, brain, PO 20 mg/kg, male C57BL/6 mice

In the case of `CNC(=O)c1ncn2c(=O)n(CCF)nnc12` [Compound I-1, 3-(2-fluoroethyl)-N-methyl-4-oxo-3H,4H-imidazo[4,3-d][1,2,3,5]tetrazine-8-carboxamide], the “Brain Concentration/Plasma Concentration, Individuals” value [1] is reported as 0.310 and 0.329, the “brain Concentration, Individuals” value [1] is reported as 6300 ng/g and 6740 ng/g and the “Brain Concentration/Plasma Concentration, Individuals” value [2] is reported as 0.473 and 0.549. The “brain Concentration, Individuals” value [2] was 7100 ng/g and 9110 ng/g, the “Brain Concentration/Plasma Concentration, Individuals” value [3] was 0.606 and 0.651 and the “brain Concentration, Individuals” value [3] was 6850 ng/g and 8730 ng/g. The “Brain Concentration/Plasma Concentration, Individuals” value [4] was 0.677 and 0.522, the “brain Concentration, Individuals” value [4] was 4770 ng/g and 3750 ng/g and the “Brain Concentration/Plasma Concentration, Individuals” value [5] was 0.623 and 0.560. For the same compound, the “brain Concentration, Individuals” value [5] was 2500 ng/g and 1920 ng/g, the “Brain Concentration/Plasma Concentration, Individuals” value [6] was 0.626 and 0.527 and the “brain Concentration, Individuals” value [6] was 952 ng/g and 1280 ng/g. The “Brain Concentration/Plasma Concentration, Individuals” value [7] was 0.483 and 0.490, the “brain Concentration, Individuals” value [7] was 155 ng/g and 345 ng/g and 90.6 ng/g and the “brain Concentration, Individuals (below limit)” value [8] was “BQL (Below the quantifiable limit of 1.00 ng/mL or ng/g for Compound I-1 in mouse plasma and brain homogenate)”. For the same compound, the “brain Concentration, Mean (below limit)” value [8] was “BQL (Below the quantifiable limit of 1.00 ng/mL or ng/g for Compound I-1 in mouse plasma and brain homogenate)”, the “brain Concentration, Individuals (below limit)” value [9] was “BQL (Below the quantifiable limit of 1.00 ng/mL or ng/g for Compound I-1 in mouse plasma and brain homogenate)” and the “brain Concentration, Mean (below limit)” value [9] was “BQL (Below the quantifiable limit of 1.00 ng/mL or ng/g for Compound I-1 in mouse plasma and brain homogenate)”. It also gave an AUCINF [10] of 4849 ng·h/g, an AUClast [10] of 4749 ng·h/g and a concentration at 0.083 hr (male, C57BL/6, mouse, brain, po, 20 mg/kg, PO 20 mg/kg, male C57BL/6 mice, 0.083 hr, N=3, read-out: brain Concentration, Mean) of 6300 ng/g. The concentration at 0.083 hr (male, C57BL/6, mouse, brain, po, 20 mg/kg, PO 20 mg/kg, male C57BL/6 mice, 0.083 hr, read-out: brain Concentration, Individuals) was 5860 ng/g, the concentration at 0.167 hr (male, C57BL/6, mouse, brain, po, 20 mg/kg, PO 20 mg/kg, male C57BL/6 mice, 0.167 hr, N=3, read-out: brain Concentration, Mean) was 7210 ng/g and the concentration at 0.167 hr (male, C57BL/6, mouse, brain, po, 20 mg/kg, PO 20 mg/kg, male C57BL/6 mice, 0.167 hr, read-out: brain Concentration, Individuals) was 5420 ng/g. It also gave a concentration at 0.333 hr (male, C57BL/6, mouse, brain, po, 20 mg/kg, PO 20 mg/kg, male C57BL/6 mice, 0.333 hr, N=3, read-out: brain Concentration, Mean) of 6840 ng/g, a concentration at 0.333 hr (male, C57BL/6, mouse, brain, po, 20 mg/kg, PO 20 mg/kg, male C57BL/6 mice, 0.333 hr, read-out: brain Concentration, Individuals) of 4950 ng/g and a concentration at 0.5 hr (male, C57BL/6, mouse, brain, po, 20 mg/kg, PO 20 mg/kg, male C57BL/6 mice, 0.5 hr, N=3, read-out: brain Concentration, Mean) of 3940 ng/g. It also gave a concentration at 0.5 hr (male, C57BL/6, mouse, brain, po, 20 mg/kg, PO 20 mg/kg, male C57BL/6 mice, 0.5 hr, read-out: brain Concentration, Individuals) of 3310 ng/g, a concentration at 0.75 hr (male, C57BL/6, mouse, brain, po, 20 mg/kg, PO 20 mg/kg, male C57BL/6 mice, 0.75 hr, N=3, read-out: brain Concentration, Mean) of 2240 ng/g and a concentration at 0.75 hr (male, C57BL/6, mouse, brain, po, 20 mg/kg, PO 20 mg/kg, male C57BL/6 mice, 0.75 hr, read-out: brain Concentration, Individuals) of 2290 ng/g. The concentration at 1 hr (male, C57BL/6, mouse, brain, po, 20 mg/kg, PO 20 mg/kg, male C57BL/6 mice, 1 hr, N=3, read-out: brain Concentration, Mean) was 1120 ng/g, the concentration at 1 hr (male, C57BL/6, mouse, brain, po, 20 mg/kg, PO 20 mg/kg, male C57BL/6 mice, 1 hr, read-out: brain Concentration, Individuals) was 1140 ng/g and the concentration at 2 hr (male, C57BL/6, mouse, brain, po, 20 mg/kg, PO 20 mg/kg, male C57BL/6 mice, 2 hr, N=3, read-out: brain Concentration, Mean) was 197 ng/g. The Kp (male, C57BL/6, mouse, brain/plasma, po, 20 mg/kg, AUCbrain/AUCplasma, PO 20 mg/kg, male C57BL/6 mice, heading: AUCbrain/AUCplasma) was 49.1%, the Kp at 0.083 hr (male, C57BL/6, mouse, brain/plasma, po, 20 mg/kg, PO 20 mg/kg, male C57BL/6 mice, 0.083 hr, N=3, read-out: Brain Concentration/Plasma Concentration, Mean) was 0.305 and the Kp at 0.083 hr (male, C57BL/6, mouse, brain/plasma, po, 20 mg/kg, PO 20 mg/kg, male C57BL/6 mice, 0.083 hr, read-out: Brain Concentration/Plasma Concentration, Individuals) was 0.276. The Kp at 0.167 hr (male, C57BL/6, mouse, brain/plasma, po, 20 mg/kg, PO 20 mg/kg, male C57BL/6 mice, 0.167 hr, N=3, read-out: Brain Concentration/Plasma Concentration, Mean) was 0.501, the Kp at 0.167 hr (male, C57BL/6, mouse, brain/plasma, po, 20 mg/kg, PO 20 mg/kg, male C57BL/6 mice, 0.167 hr, read-out: Brain Concentration/Plasma Concentration, Individuals) was 0.48 and the Kp at 0.333 hr (male, C57BL/6, mouse, brain/plasma, po, 20 mg/kg, PO 20 mg/kg, male C57BL/6 mice, 0.333 hr, N=3, read-out: Brain Concentration/Plasma Concentration, Mean) was 0.606. It also gave a Kp at 0.333 hr (male, C57BL/6, mouse, brain/plasma, po, 20 mg/kg, PO 20 mg/kg, male C57BL/6 mice, 0.333 hr, read-out: Brain Concentration/Plasma Concentration, Individuals) of 0.561, a Kp at 0.5 hr (male, C57BL/6, mouse, brain/plasma, po, 20 mg/kg, PO 20 mg/kg, male C57BL/6 mice, 0.5 hr, N=3, read-out: Brain Concentration/Plasma Concentration, Mean) of 0.575 and a Kp at 0.5 hr (male, C57BL/6, mouse, brain/plasma, po, 20 mg/kg, PO 20 mg/kg, male C57BL/6 mice, 0.5 hr, read-out: Brain Concentration/Plasma Concentration, Individuals) of 0.525. For the same compound, the Kp at 0.75 hr (male, C57BL/6, mouse, brain/plasma, po, 20 mg/kg, PO 20 mg/kg, male C57BL/6 mice, 0.75 hr, N=3, read-out: Brain Concentration/Plasma Concentration, Mean) was 0.586, the Kp at 0.75 hr (male, C57BL/6, mouse, brain/plasma, po, 20 mg/kg, PO 20 mg/kg, male C57BL/6 mice, 0.75 hr, read-out: Brain Concentration/Plasma Concentration, Individuals) was 0.575 and the Kp at 1 hr (male, C57BL/6, mouse, brain/plasma, po, 20 mg/kg, PO 20 mg/kg, male C57BL/6 mice, 1 hr, N=3, read-out: Brain Concentration/Plasma Concentration, Mean) was 0.559. It also gave a Kp at 1 hr (male, C57BL/6, mouse, brain/plasma, po, 20 mg/kg, PO 20 mg/kg, male C57BL/6 mice, 1 hr, read-out: Brain Concentration/Plasma Concentration, Individuals) of 0.523, a Kp at 2 hr (male, C57BL/6, mouse, brain/plasma, po, 20 mg/kg, PO 20 mg/kg, male C57BL/6 mice, 2 hr, N=3, read-out: Brain Concentration/Plasma Concentration, Mean) of 0.468 and a Kp at 2 hr (male, C57BL/6, mouse, brain/plasma, po, 20 mg/kg, PO 20 mg/kg, male C57BL/6 mice, 2 hr, read-out: Brain Concentration/Plasma Concentration, Individuals) of 0.432. For the same compound, the Cmax [11] was 7210 ng/g, the MRT inf [11] was 31.6 min and the Tmax [11] was 10 min. The half-life [11] was 21.1 min and the “concentration in brain tissue compared with KL50 (in words)” value (oral administration to mice) was “much larger concentration in brain tissue”.
